Measurements reported in patent US8318947B2, “Comestible compositions comprising high potency savory flavorants, and processes for producing them” (Senomyx, Inc., priority 2006, dated 2012).

Columns and labels:
external tasters = assay: Cajun BBQ potato chips focus group taste test; assay type: in vivo, human; conditions: chips with 3 ppm compound; eleven panelists
Description: Two solid savory flavor concentrate compositions were prepared by spray drying procedures equivalent to those reported in Example 35. One savory flavor concentrate sample, comprising 0.01% (wt/wt) of the compound of Example 1 was prepared via from the compound of Example 1, Neobee M-5 medium chain triglycerides, N-Lok 1930 modified food starch, and maltodextrin. Another savory flavor concentrate sample, comprising 0.01% (wt/wt) of the compound of Example 24 was similarly prepared via from the compound of Example 24, Neobee M-5 medium chain triglycerides, N-Lok 1930 modified food starch, and maltodextrin. A basic dry seasoning mix for providing Cajun flavor for the chips was prepared by dry blending the ingredients in Table 38-1 using a […] blender for 5 minutes at 40-80 rpms using a wire whip attachment. Kettle® Unsalted potato chips were hand broken into reasonably uniform 1⁄2''×1⁄2'' pieces and placed in a polyethylene 26.7 cm×27.9 cm non-vented food bag. The chips were then heated in an Amana Commercial 1200 watt microwave for 20 seconds to release oils, and so the seasoning would adhere to the chips. […] The panelists evaluated the four sample types of Cajun BBQ chips in a Focus Group taste test procedure and were instructed to write comments on several attributes: sweet, BBQ, Cajun spice, pepper, onion, salt, potato, umami, off tastes, other, and liking or disliking. […]

[1] = system: human panelists, savory taste; assay: Savory taste test with trained human panel (difference from reference); assay type: in vivo; conditions: for Taste Data: cpd concentration at which 12 mM MSG + cpd is as strong as 12 mM MSG + 100 μM IMP: with 12 mM MSG, reference 12 mM MSG + 100 μM IMP
Description: General Panelist Selection: Basic screening of sensory taste testers: Potential panelists were tested for their abilities to rank and rate intensities of solutions representing the five basic tastes. Panelists ranked and rated intensity of five different concentrations of each of the five following compounds: sucrose (sweet), sodium chloride (salty), citric acid (sour), caffeine (bitter), and monosodium glutamate (savory). In order to be selected for participation in testing, panelists needed to correctly rank and rate samples for intensity, with a reasonable number of errors.
Preliminary Taste Tests: The panelists selected in the above procedure were deemed qualified for performing Preliminary Taste Testing procedures. The preliminary taste tests are used to evaluate new compounds for intensity of basic tastes and off-tastes. A small group of panelists (n=5) taste approximately 5 concentrations of the compound (range typically between 1-100 μM, in half-log cycles, e.g., 1, 3, 10, 30, and 100 μM) in water and in a solution of 12 mM MSG to evaluate enhancement. Panelists rate the five basic tastes (sweet, salty, sour, bitter, and savory) as well as off-tastes (such as chemical, metallic, sulfur) on a labeled magnitude scale. Samples are served in 10 mL portions at room temperature. The purpose of the test is to determine the highest concentration at which there is no objectionable off-taste, and determine if obvious savory taste or enhancement of savory taste exists at any of the concentrations tested.
Trained Panelist Selection: A trained expert panel was used to further evaluate compounds that had been tested with the preliminary taste test.
Panelists for the trained panel were selected from the larger group of qualifying taste panelists. Panelists were further trained on savory taste by ranking and rating experiments using MSG and IMP combinations. Panelists completed a series of ranking, rating, and difference from reference tests with savory solutions. In ranking and rating experiments, panelists evaluated easy MSG concentrations (0, 6, 18, 36 mM) and more difficult MSG concentrations (3, 6, 12, 18 mM MSG) in water.
Compound testing with Trained Panel: Compounds tested by the trained panel were evaluated in difference from reference experiments. […] Test samples were solutions with varying amounts of MSG, IMP, and the compound. Typically, each session compares the reference sample to numerous test samples. […] Compounds were tested against the reference in samples with and without 12 mM MSG. All samples were presented in 10 ml volumes at room temperature. Two sessions were completed for each compound tested to evaluate panel reproducibility.

SMILES: CCCC(CCC)NC(=O)c1ccc2c(c1)OCO2 [Example 1, N-(heptan-4-yl)benzo[d][1,3]dioxole-5-carboxamide]
- Panelists reporting higher intensity of Cajun spice and pepper flavors (external tasters): 9/11
- Taste Data: cpd concentration at which 12 mM MSG + cpd is as strong as 12 mM MSG + 100 μM IMP [1]: 12 mM MSG + 3 μM cpd as

SMILES: COc1ccc(CNC(=O)C(=O)NCCc2ccccn2)c(OC)c1 [Example 24, N-(2,4-Dimethoxy-benzyl)-N′-(2-pyridin-2-yl-ethyl)-oxalamide]
- Panelists reporting higher intensity of Cajun spice and pepper flavors (external tasters): 9/11
- Taste Data: cpd concentration as strong as 12 mM MSG ([1]; compound alone, without MSG): 1 μM cpd as strong as
- Taste Data: cpd concentration at which 12 mM MSG + cpd is as strong as 12 mM MSG + 100 μM IMP [1]: 12 mM MSG + 1 μM cpd as
